In patent publication US5219866A, “Octadecyl-[2-(N-methylpiperidino)-ethyl]-phosphate and a process for its preparation” (Asta Medica AG, priority 1991, dated 1993):
In brackets after ≈: the same amount, converted by molar mass.

Legend:
[1] = test system: Human KB tumour cell line; assay: EC90, growth inhibition of human KB tumour cell line in vitro; assay type: cell-based; settings: concentration which inhibits growth of cancer cells in vitro by 90%, read-out: ECqo in μg/ml Human KB tumour cell line in vitro
Description: Human KB tumour cell line in
The EC90 is determined in vitro in the same cell line. The EC90 is the concentration of substance having an antitumor effect in μg/ml which inhibits the growth of cancer cells in vitro by 90% in comparison to a control experiment without addition of the antitumor-acting substance.

[2] = test system: human KB tumor cell line which is transplanted in nude mice; assay: Growth inhibition index WHI in vivo, human KB tumour cell line transplanted into nude mice; parameters: species or system human (KB tumour); nude mice (host); settings: for Growth inhibition index WHI in % in vivo/humane KB tumour cell line transplanted into nude: 14th day after treatment related to the value on the day of application, WHI >100% = tumors became smaller
Description: Growth inhibition index WHI in % in vivo/humane
Substance KB tumour cell line transplanted into nude
The growth inhibition index WHI is determined in the human KB tumor cell line which is transplanted in nude mice. The growth inhibition index is defined as follows: [formula] of the treated group or in the control group on the 14th day after treatment related to the value on the day of application. […] In other words, the higher the WHI, the stronger the antitumor efficacy of a test substance.
(§1) The compounds of the invention display a good antineoplastic effect in the KB tumor (human carcinoma of the buccal cavity, transplanted subcutaneously to nude mice) and in autochthonous, chemically-induced DMBA-breast gland cancer in the rat.

DMBA-breast gland cancer = assay: autochthonous, chemically-induced DMBA-breast gland cancer in the rat; assay type: in vivo; settings: oral, 21.5 mg/kg body weight daily, 14-day treatment
Excerpt: as §1

lipoxygenase = lipoxygenase inhibition; assay type: biochemical
phospholipase-A2 = phospholipase-A2 inhibition; assay type: biochemical
[3] = test system: blood platelet aggregation; assay: inhibition of blood platelet aggregation; assay type: cell-based

Compound | IC90 [1] [µg/mL] | Growth inhibition index WHI in % in vivo/humane KB tumour cell line transplanted into nude [2] [%] | regression of DMBA tumors weighing 5 g (DMBA-breast gland cancer) | lipoxygenase-inhibiting effect (lipoxygenase) | phospholipase-A2-inhibiting effect (phospholipase-A2) | inhibition of blood platelet aggregation [3] | regression of the KB tumors ([2]; 2×316 mg/kg body weight, given at intervals of one week)
CCCCCCCCCCCCCCCCCCOP(=O)([O-])OCC[N+]1(C)CCOCC1 [D 20680] | > 10 | 0 |  |  |  |  | 
CCCCCCCCCCCCCCCCCCOP(=O)([O-])OCC[n+]1ccccc1 [D 19862] | > 1 | 0 |  |  |  |  | 
CCCCCCCCCCCCCCCCCCOP(=O)([O-])OCC[N+](C)(C)C [D 19391] | 0.31 (≈ 0.712 µM) | 11 |  |  |  |  | 
CCCCCCCCCCCCCCCCCCOP(=O)([O-])OCC[N+]1(CC)CCCCC1 [D 20931] | 1 (≈ 2.04 µM) | 13 |  |  |  |  | 
CCCCCCCCCCCCCCCCCCOP(=O)([O-])OCC[N+]1(C)CCCCC1 [D 20133, Octadecyl-[2-(N-methylpiperidino)-ethyl]-phosphate] | 0.3 (≈ 0.631 µM) | 121 | regressed to the borderline of palpability | lipoxygenase-inhibiting effect | phospholipase-A2 -inhibiting | causes inhibition of blood platelet aggregation | achieved a regression of the KB tumors
CCCCCCCCCCCCCCCCCCOP(=O)([O-])OCC[N+]1(C)CCCCCC1 [D20918] | 1 (≈ 2.04 µM) | 0 |  |  |  |  | 
